The nature of this data set: physchem. The conditions noted are these: pH 7, aqueous buffer, thermodynamic from solid.

The text below walks through data of patent publication US10174156B2, “Hyperbranched polyester with a hydrophobic nucleus for solubilizing poorly soluble active substances” (BASF SE, priority 2009, dated 2019).

Where only a bound is given, the exact number is not on record here.

Method: 2 g of polymer were weighed into a 50 ml beaker. Subsequently, 0.2 g of active ingredient in each case was weighed into the mixture in order to obtain an oversaturated solution. […] The mixture was then stirred at room temperature with the aid of a magnetic stirrer for 72 h. After a rest time of 1 h, excess (i.e. unsolubilized) active ingredient was removed by filtration. The clear or opaque solution thus obtained was subsequently analyzed for its active ingredient content by means of UV spectroscopy or HPLC.

Molecule `Clc1ccccc1C(c1ccccc1)(c1ccccc1)n1ccnc1` [Clotrimazole] registered a solubility at 72 h of less than 100 µg/mL.
